Measurements reported in US9078441B2, “Antimicrobial flush solutions” (Board of Regents, The University of Texas System, priority 2003, dated 2015).

Assays:
[1] = test system: methicillin-resistant Staphylococcus aureus (MRSA); test: Modified Robbins device (MRD) in vitro colonization model, MRSA in biofilm on silicone catheter segments; format: cell-based; settings: for 24 h growth after 15 min in drug mean CFU MRSA / suppression / eradication / regrowth of MRSA embedded in biofilm, in words: 15 min exposure; for 24 h growth after 15 min in drug mean CFU MRSA: then re-incubation in broth for 24 h at 37° C.; for suppression / eradication / regrowth of MRSA embedded in biofilm, in words: with or without 24 h re-incubation in broth; for 15 minutes in Drug mean CFU MRSA: catheter segments cultured by scrape sonication immediately after 15 min exposure at 37° C., confluent growth counted as 500
From the text: (§1) The in vitro model utilized a modified Robbins device (MRD) to study the colonization of catheter segments with organisms embedded in biofilm. The modified Robbins device has been previously described (Nickel et al., 1991; Evans et al., 1987, see also U.S. Pat. No. 5,362,754) and is constructed from an acrylic block, 42 cm long with a lumen of 2×10 mm. It consists of 25 evenly spaced specimen plugs, each connected to a silicone catheter segment (Allegiance Healthcare Corp., McGaw Park, Ill.) whose anterior surface (0.3 cm^2) comes in conta-ct with the flushed infusate. After placing the catheter segments in the specimen plug of the modified Robbins device, the entire apparatus was gas sterilized using ethylene oxide. A 500 ml 5% dextrose in water (5% D5/W) was connected to the modified Robbins device through an intravenous tubing administration set and was subsequently infected with an innoculum of 10^8 CFU/ml of methicillin-resistant Staphylococcus aureus (MRSA), to produce an infected infusate at the concentration of 2×10^5 CFU/ml. The biofilm-producing S. aureus isolates were obtained from patients with CRBSI. In another series of experiments, 500 ml 5% D5/W bag was infected with a biofilm-producing C. parapsilosis using an inoculum of 10^5 CFU/ml to produce an infected infusate at a concentration of 2×10^2 CFU/ml of C. parapsilosis. The whole system was incubated at 37° C. and the infected infusate was flushed through the MRD using a peristaltic pump permitting the infusate to flow at the rate of 60 ml/hour for 8 hours. The modified Robbins device was left to incubate for a total of 18 hours (another 10 hours). Subsequently, the infected bag was removed and a 250 ml saline sterile bag which was infused through the MRD at 125 ml/hour for 2 hours in order to remove all free floating organisms. To insure biofilm formation, at least three catheter segments were randomly removed from the 25 evenly spaced catheter segments in the MRD and studied by scanning electron microscopy. This was repeated for every organism tested.
(§2) The remaining catheter segments were removed and each segment was placed in a tube containing 2 ml of one of the following broth solutions: (1) Mueller-Hinton broth (Becton Dickinson & Co., Cockeysville, Md.); (2) EDTA at a concentration of 30 mg/ml in broth (Abbott Laboratories, North Chicago, Ill.); (3) minocycline at 3 mg/ml in broth (Wyeth-Ayerst Laboratories, Collegeville, Pa.); (4) minocycline (3 mg/ml) and EDTA combination (M-EDTA) in broth; (5) 25% ethanol (ETOH) solution in broth; (6) minocycline at 3 mg/ml in 25% ethanol solution in broth; (7) EDTA 30 mg/ml in 25% ethanol solution in broth; and (8) M-EDTA in 25% ethanol solution in broth. The experiments were repeated in triplicate or quadruplicate, and during each experiment, 2-5 catheter segments were exposed to the same solution for only 15 minutes at 37° C. Subsequently, some of the catheter segments were immediately removed and cultured by scrape sonication. Other alternating catheter segments were removed, placed in broth (TSB), incubated for 24 hours, and then cultured by scrape sonication. This added step of re-incubating catheter segments in broth after the 15 minutes exposure was done to determine whether these agents suppressed the growth of organisms embedded in biofilm or eradicated them. The surface of the catheter segment that was exposed to the infected infusate was scraped with a sterile wooden applicator stick and placed, along with the stick, in a tube containing 0.5 ml of trypticase soy broth. The tubes were sonicated for five minutes; 0.1 ml of the sonicated broth solution in the tube was pipetted and plated over a blood agar plate, which was incubated at 37° for 24 hours. The agar plates were checked for any contaminants. The isolated organisms had to be of the same species and colonial morphology as the original organism used to infect the infusate.

C. parapsilosis = test: Modified Robbins device (MRD) in vitro colonization model, Candida parapsilosis in biofilm on silicone catheter segments; format: cell-based; settings: for 24 h Growth after 15 Minutes in Drug Mean CFU C. Parapsilosis / suppression / eradication / regrowth of C. parapsilosis embedded in biofilm, in words: 15 min exposure; for 24 h Growth after 15 Minutes in Drug Mean CFU C. Parapsilosis: then re-incubation in broth for 24 h; for suppression / eradication / regrowth of C. parapsilosis embedded in biofilm, in words: with or without 24 h re-incubation in broth; for 15 Minutes in Drug Mean CFU C. Parapsilosis: cultured immediately after 15 min exposure at 37° C.
From the text: as §1, §2

MRSA = test: Silicone disk bioprosthetic colonization MRSA model; format: cell-based, Staphylococcus aureus; settings: for suppression / eradication / regrowth of bioprosthetic MRSA colonization of silicone disks, in words / 1 hour in Drug Mean CFU ± std. error: 1 hour exposure; for suppression / eradication / regrowth of bioprosthetic MRSA colonization of silicone disks, in words: with or without 24 h incubation; for 1 hour in Drug Mean CFU ± std. error / 24 h Growth after 1 hour in Drug Mean CFU ± std. error: MRSA on silicone disks; for 1 hour in Drug Mean CFU ± std. error: up to 5,000 CFU/disk; for 24 h Growth after 1 hour in Drug Mean CFU ± std. error: exposure then 24 h reincubation in TSB
Procedure: (§3) On day 1, pieces of biofilm were prepared. Sterile (Ethylene Oxide Gas Sterilized) silicone disks were placed in 5 ml sterile snap top Falcon tubes and 0.5 ml of pooled plasma added. This was followed by incubation (while rocking) overnight at 37° C.
(§4) On day 2, the bacteria was added to form the biofilm. Using sterile plastic transfer pipettes, the plasma was suctioned out from the tubes and replaced with 0.5 ml of bacterial inoculum (50 ml of Mueller-Hinton broth containing 4-5 colonies of freshly grown bacteria). The tubes were incubated overnight at 37° C.
(§5) On day 3, a drug was added in an attempt to kill the bacteria. Before adding the drug, the pieces were washed in 0.5 ml of 0.9% saline in order to remove any planktonic bacteria. The tubes (containing the biofilm disks and saline) were placed in the incubator at 37° C. for 30 minutes. The saline was then pipetted out using sterile plastic transfer pipettes (taking care not to disturb the pieces too much). The silicone disks were then transferred to new 5 ml snap-top falcon tubes containing 0.5 ml of the drug solution to be tested. The drug solutions tested were as follows: (1) minocycline 3 mg/ml; (2) EDTA 30 mg/ml; (3) 25% ethanol solution; (4) EDTA 30 mg/ml in 25% ethanol; (5) minocycline 3 mg/ml in 25% ethanol; (6) minocycline 3 mg/ml with EDTA 30 mg/ml; and (7) triple combination of minocycline 3 mg/ml and EDTA 30 mg/ml in 25% ethanol solution. The disks were allowed to sit in the drug for 1 hour. The drug was then suctioned out using a plastic transfer pipette. The pieces were once again washed with 0.5 ml saline (added, and shaken for 30 seconds). The disks were then transferred to 15 ml snap-top falcon tubes containing 5 ml of 0.9% saline. The pieces were sonicated for 5 minutes, and then vortexed for 30 seconds. 100 microliters (μl) of the saline was then plated on a room temperature TSAII blood agar plate, and evenly spread using a sterile glass spreader. The plates were incubated overnight at 37° C.
(§6) For the 24 hour reincubation studies, pieces of biofilm were prepared the same exact way as the regular pieces. Before adding the drug, the pieces were washed in 0.5 ml of 0.9% saline in order to remove any planktonic bacteria. The tubes (now containing the biofilm disks and saline) were placed in the incubator at 37° C. for 30 minutes. The saline was then pipetted out using sterile plastic transfer pipettes (taking care not to disturb the pieces too much). The silicone disks were then transferred to new 5 ml snap-top falcon tubes containing 0.5 ml of the drug to be tested. […] The drug was then suctioned out using a plastic transfer pipette. The pieces were once again washed with 0.5 ml saline (added, and shaken for 30 seconds). The pieces were then transferred to new sterile 5 ml snap-top falcon tubes containing 0.5 ml of sterile trypticase soy broth (TSB) and then placed in the incubator at 37° C. overnight.
(§7) On day 4, colonies were counted and the results recorded. The colonies were hand counted, and counting was stopped at 100 colonies. Anything greater was considered >100 colonies. The counts were recorded, and multiplied by a factor of 50 because of the dilution factor between the 5 ml of saline containing the disk and the 100 μl that was plated onto the TSAII blood agar plates. The pieces were then sonicated (in the same TSB that grew overnight) for 5 minutes. 100 μl was then plated on TSAII blood agar plates, and the plates were placed in the incubator to grow overnight at 37° C.
(§8) On day 5, the regrowth pieces were counted. The colonies were hand counted, and counting was stopped at 100 colonies. Anything greater was considered >100 colonies. The counts were recorded, and multiplied by a factor of 5 because of the dilution factor between the 0.5 ml of TSB containing the disk and the 100 μl that was plated onto the TSAII blood agar plates.

Candida parapsilosis = test: Silicone disk bioprosthetic colonization Candida parapsilosis model; format: cell-based; settings: for suppression / eradication of Candida parapsilosis growth on silicone disks, in words / 1 hour in Drug Mean CFU C. Parapsilosis: 1 hour exposure; for 1 hour in Drug Mean CFU C. Parapsilosis / 24 h Growth after 1 hour in Drug Mean CFU C. Parapsilosis: silicone disks; for 24 h Growth after 1 hour in Drug Mean CFU C. Parapsilosis: exposure then 24 h reincubation in TSB
Procedure: as §3, §4, §5, §6, §7, §8

[2] = test system: organisms that colonize the lumen of the catheter; settings: dwell time of 4-24 hours; cited from earlier work

Row | SMILES | 24 h growth after 15 min in drug mean CFU MRSA [1] [CFU] | suppression / eradication / regrowth of MRSA embedded in biofilm, in words [1] | 15 minutes in Drug mean CFU MRSA [1] [CFU] | 24 h Growth after 15 Minutes in Drug Mean CFU C. Parapsilosis (C. parapsilosis) [CFU] | suppression / eradication / regrowth of C. parapsilosis embedded in biofilm, in words (C. parapsilosis) | 15 Minutes in Drug Mean CFU C. Parapsilosis (C. parapsilosis) [CFU] | suppression / eradication / regrowth of bioprosthetic MRSA colonization of silicone disks, in words (MRSA) | 1 hour in Drug Mean CFU ± std. error (MRSA) [CFU] | 24 h Growth after 1 hour in Drug Mean CFU ± std. error (MRSA) [CFU] | suppression / eradication of Candida parapsilosis growth on silicone disks, in words (Candida parapsilosis) | 1 hour in Drug Mean CFU C. Parapsilosis (Candida parapsilosis) [CFU] | 24 h Growth after 1 hour in Drug Mean CFU C. Parapsilosis (Candida parapsilosis) [CFU] | 24 h growth after 15 min in drug mean CFU MRSA ([1]; listed as 25% ethanol solution) [CFU] | 15 minutes in Drug mean CFU MRSA ([1]; listed as 25% ethanol solution) [CFU] | eradication of microbial organisms embedded in biofilm from catheter surfaces, in words [2]
1 | CN(C)c1ccc(O)c2c1C[C@H]1C[C@H]3[C@H](N(C)C)C(O)=C(C(N)=O)C(=O)[C@@]3(O)C(O)=C1C2=O [3 mg/ml minocycline, minocycline] | 308.3 ± 151.1 | some decrease in colonization | 323.7 ± 199.0 | 500.0 ± 0.0 | failed to eradicate | 138.3 ± 111.8 | failed to suppress | 5000.0 ± 0.0 | 5000.0 ± 0.0 | failed to suppress or eradicate | 5000.0 ± 0.0 | 5000.0 ± 0.0 |  |  | 
2 | CCO [25% EtOH in MHB, ethanol] | 500.0 ± 0.0 |  | 138.0 ± 193.8 | 142.9 ± 225.9 | regrowth was noted | 0 | failed to suppress | 2900.0 ± 722.8 | 5000.0 ± 0.0 | failed to completely suppress | 1933 ± 601.6 | 3875.0 ± 618.3 | 500 | 138 | 
3 | O=C(O)CN(CCN(CC(=O)O)CC(=O)O)CC(=O)O [30 mg/ml EDTA, ethylenediamine-N,N,N′,N′,-tetraacetic acid] | 500.0 ± 0.0 | failed to eradicate | 479.6 ± 44.9 | 500.0 ± 0.0 | failed to eradicate | 160 ± 78.8 | failed to suppress | 5000.0 ± 0.0 | 5000.0 ± 0.0 | failed to suppress or eradicate | 5000.0 ± 0.0 | 5000.0 ± 0.0 |  |  | 
4 | CN[C@H](CC(C)C)C(=O)N[C@H]1C(=O)N[C@@H](CC(N)=O)C(=O)N[C@H]2C(=O)N[C@H]3C(=O)N[C@H](C(=O)N[C@H](C(=O)O)c4cc(O)cc(O)c4-c4cc3ccc4O)[C@H](O)c3ccc(c(Cl)c3)Oc3cc2cc(c3O[C@@H]2O[C@H](CO)[C@@H](O)[C@H](O)[C@H]2O[C@H]2C[C@](C)(N)[C@H](O)[C@H](C)O2)Oc2ccc(cc2Cl)[C@H]1O [vancomycin alone, vancomycin] |  |  |  |  |  |  |  |  |  |  |  |  |  |  | failed to eradicate
